# Experimental data published in patent US8324264B1, “Inhibitors of bacterial biofilms and related methods” (Sequoia Sciences, Inc., priority 2011, dated 2012).
# Read-outs that look alike come from different tables or passages of the source.
# Key:
# P. aeruginosa biofilms = assay: Biofilm growth assay (spreading biofilm on semi-solid agar), P. aeruginosa; type: cell-based; conditions: for IC85: Pseudomonas aeruginosa, read-out: P. aeruginosa: concentration that reduces the area of the spreading biofilm by greater than or equal to 85%
# Excerpt: (§1) “Biofilm Growth Assay” refers to an assay performed on semi-solid agar surface where the bacteria collectively move out from an inoculation point. To those skilled in the art, the act of bacteria collectively moving out from an inoculation point on a semi-solid surface may be referred to as swarming or a spreading biofilm. (Anderson, et al Microbiology, 2003, 149, 37-46; Daniels, et al. FEMS Microbiology Reviews, 2004, 28, 261-289). The procedure to perform this assay is described in detail in the Examples. This type of surface motility by bacteria has been reported in the literature by those skilled in the art. […] These references are incorporated herein by reference in their entirety.
# (§2) The biofilm growth assay was carried out to measure swarming or biofilm spreading on semi-solid agar media in round plates (for example, 100×15 mm), also referred to as Petri dishes. For E. coli, the plates contained LB medium with 0.6% agar and 0.5% glucose. P. aeruginosa plates were made with M8 agar supplemented with 0.2% glucose, 100 μM CaCl2, 1 mM MgSO4, and 0.5% Casamino acids. The agar plates of this assay consisted of 0.4% to 0.7% agar (Bacto or Noble agar), although other media may also be used as described in the literature and known to those skilled in the art. Test compounds at the desired concentration were added to the cooled, autoclaved media. Portions of the media were then poured into the plates (20 mL/plate), and the plates allowed to dry at room temperature for approximately 3 to 4 hours. Alternatively, however, plates may be dried in a laminar flow hood for approximately fifteen to twenty minutes. Overnight cultures were grown in a 37° C. shaker in LB (E. coli) or TSB (P. aeruginosa). Plates were inoculated by placing 5 μL of the appropriate overnight culture in the centers of the plates. The plates then were incubated overnight at 37° C. The area of the zone of spreading bacteria was then measured and replicates are averaged. Percent inhibition was calculated as 100×(area without compound−area with compound)/(area without compound). An active compound was considered that which reduces the area of the spreading biofilm compared to negative controls by greater than or equal to 85%. The values shown in Table 1 are the concentrations of compounds (μg/ml) tested in the biofilm growth assay that reduce the area of the spreading biofilm compared to negative controls by greater than or equal to 85% unless noted differently in Table 1. A > (“greater than” symbol) as used in Table 1 is well understood to those skilled in the art as an indication that the listed concentration was not effective at this concentration.
# (§3) All of the compounds shown in Tables 2, 3, 4, and 5, below, were prepared semi-synthetically from oleanolic acid, except for Compounds 2 and 3. Compound 2 was prepared from ursolic acid. Compound 3 was prepared from hederagenin, but could also be prepared from an oleanolic acid analog with a hydroxyl at C23 or C24. These compounds were tested in the spreading biofilm assay according to the methods detailed in Example I, above. The values shown in Tables 2, 3, 4, and 5 are the concentrations of compounds tested in the biofilm growth assay that reduce the area of the spreading biofilm compared to negative controls by greater than or equal to 85%.
# E. coli biofilms = assay: Biofilm growth assay (spreading biofilm on semi-solid agar), E. coli; type: cell-based; conditions: biofilm growth assay, overnight 37° C., vs negative controls, Tables 1-5; for IC85: Escherichia coli, read-out: E. coli: concentration that reduces the area of the spreading biofilm by greater than or equal to 85%
# Excerpt: as §1, §2, §3
# [1] = biofilm growth assay, overnight 37° C., vs negative controls, Tables 1-5
Compound,IC85 (P. aeruginosa biofilms; [1]),IC85 (E. coli biofilms),P. aeruginosa: concentration that reduces the area of the spreading biofilm by greater than or equal to 85% (P. aeruginosa biofilms; [1]),E. coli: concentration that reduces the area of the spreading biofilm by greater than or equal to 85% (E. coli biofilms),IC85 (P. aeruginosa biofilms)
C[C@@H]1CC[C@]2(C(=O)O)CC[C@]3(C)C(=CCC4[C@@]5(C)C[C@H](CO)[C@H](O)C(C)(C)C5CC[C@]43C)C2[C@H]1C (some centres unmarked) [A],8 µg/mL,> 8 µg/mL,,,
C[C@@H]1CC[C@]2(C(=O)O)CC[C@]3(C)C(=CCC4[C@@]5(C)C[C@H](CO)[C@H](O)C(C)(C)C5CC[C@]43C)C2[C@H]1C (some centres unmarked) [B],,,4 µg/mL,8 µg/mL,
"C=C(C)[C@@H]1CC[C@]2(CO)CC[C@]3(C)[C@H](CC[C@@H]4[C@@]5(C)CC[C@H](O)C(C)(C)[C@@H]5CC[C@]43C)[C@@H]12 [Betulin, reference compound]",16 µg/mL,> 16 µg/mL,,,
"C=C(C)[C@@H]1CC[C@]2(C(=O)O)CC[C@]3(C)[C@H](CC[C@@H]4[C@@]5(C)CC[C@H](O)C(C)(C)[C@@H]5CC[C@]43C)[C@@H]12 [Betulinic acid, reference compound]",> 16 µg/mL,> 16 µg/mL,,,
CC1(C)CC[C@]2(C(=O)O)CC[C@]3(C)C(=CCC4[C@@]5(C)Cc6cc[nH]c6C(C)(C)C5CC[C@]43C)C2C1 (some centres unmarked) [C],0.5 µg/mL,0.5 µg/mL,,,
"CC1(C)CC[C@]2(c3cc(N)[nH]n3)CC[C@]3(C)C(=CCC4[C@@]5(C)Cc6c(n[nH]c6N)C(C)(C)C5CC[C@]43C)C2C1 (stereo partly drawn) [Compound 60, (4aS,6aS,6bR,13aR)-4-a-(5-Amino-1H-pyrazol-3-yl)-2,2,6a,6b,9,9,13a-heptamethyl-2,3,4,4a,5,6,6a,6b,7,8,8a,9,11,13,13a,13b,14,15b-octadecahydro-1H-chryseno[1,2-f]indazol-12-amine]",,,0.5 µg/mL,1 µg/mL,
"CC1(C)CC[C@]2(CN)CC[C@]3(C)C(=CCC4[C@@]5(C)Cc6c(n[nH]c6N)C(C)(C)C5CC[C@]43C)C2C1 (stereo partly drawn) [Compound 63, (4aS,6aS,6bR,13aR)-4-a-(Aminomethyl)-2,2,6a,6b,9,9,13a-heptamethyl-2,3,4,4a,5,6,6a,6b,7,8,8a,9,11,13,13a,13b,14,15b-octadecahydro-1H-chryseno[1,2-f]indazol-12-amine]",4 µg/mL,1 µg/mL,,,
"CC1(C)CC[C@]2(C(=O)NO)CC[C@]3(C)C(=CCC4[C@@]5(C)Cc6c(n[nH]c6N)C(C)(C)[C@@H]5CC[C@]43C)[C@@H]2C1 (stereo partly drawn) [Compound 65, (4aS,6aS,6bR,13aR)-12-Amino-N-hydroxy-2,2,6a,6b,9,9,13a-heptamethyl-2,3,4,4a,5,6,6a,6b,7,8,8a,9,11,13,13a,13b,14,15b-octadecahydro-1H-chryseno[1,2-f]indazole-4-a-carboxamide]",0.25 µg/mL,0.25 µg/mL,,,
"CC1(C)CC[C@]2(C(=O)Nc3cc(O)[nH]n3)CC[C@]3(C)C(=CCC4[C@@]5(C)Cc6c(n[nH]c6N)C(C)(C)C5CC[C@]43C)C2C1 (stereo partly drawn) [Compound 66, (4aS,6aS,6bR,13aR)-12-Amino-N-(5-hydroxy-1H-pyrazol-3-yl)-2,2,6a,6b,9,9,13a-heptamethyl-2,3,4,4a,5,6,6a,6b,7,8,8a,9,11,13,13a,13b,14,15b-octadecahydro-1H-chryseno[1,2-f]indazole-4-a-carboxamide]",0.25 µg/mL,1 µg/mL,,,
"CC1(C)CC[C@]2(c3nnco3)CC[C@]3(C)C(=CCC4[C@@]5(C)Cc6c(n[nH]c6N)C(C)(C)C5CC[C@]43C)C2C1 (stereo partly drawn) [Compound 67, (4aS,6aS,6bR,13aR)-2,2,6a,6b,9,9,13a-Heptamethyl-4-a-(1,3,4-oxadiazol-2-yl)-2,3,4,4a,5,6,6a,6b,7,8,8a,9,11,13,13a,13b,14,15b-octadecahydro-1H-chryseno[1,2-f]indazol-12-amine]",,,1 µg/mL,2 µg/mL,
"CC1(C)CC[C@]2(c3cc(O)[nH]n3)CC[C@]3(C)C(=CCC4[C@@]5(C)Cc6c(n[nH]c6N)C(C)(C)[C@@H]5CC[C@]43C)[C@@H]2C1 (stereo partly drawn) [Compound 68, 3-((4aS,6aS,6bR,13aR)-12-Amino-2,2,6a,6b,9,9,13a-heptamethyl-2,3,4,4a,5,6,6a,6b,7,8,8a,9,11,13,13a,13b,14,15b-octadecahydro-1H-chryseno[1,2-f]indazol-4-a-yl)-1H-pyrazol-5-ol]",0.5 µg/mL,0.5 µg/mL,,,
"CC1(C)CC[C@]2(C(=O)Sc3nnc(N)[nH]3)CC[C@]3(C)C(=CCC4[C@@]5(C)Cc6c(n[nH]c6N)C(C)(C)C5CC[C@]43C)C2C1 (stereo partly drawn) [Compound 70, (4aS,6aS,6bR,13aR)—S-5-Amino-4H-1,2,4-triazol-3-yl12-amino-2,2,6a,6b,9,9,13a-heptamethyl-2,3,4,4a,5,6,6a,6b,7,8,8a,9,11,13,13a,13b,14,15b-octadecahydro-1H-chryseno[1,2-f]indazole-4-a-carbothioate]",0.5 µg/mL,2 µg/mL,,,
"CC1(C)CC[C@]2(C(=O)Nc3nnc(N)s3)CC[C@]3(C)C(=CCC4[C@@]5(C)Cc6c(n[nH]c6N)C(C)(C)C5CC[C@]43C)C2C1 (stereo partly drawn) [Compound 71, (4aS,6aS,6bR,13aR)-12-Amino-N-(5-amino-1,3,4-thiadiazol-2-yl)-2,2,6a,6b,9,9,13a-heptamethyl-2,3,4,4a,5,6,6a,6b,7,8,8a,9,11,13,13a,13b,14,15b-octadecahydro-1H-chryseno[1,2-f]indazole-4-a-carboxamide]",0.5 µg/mL,2 µg/mL,,,
"CC1(C)CC[C@]2(C(=O)n3ccnc3N)CC[C@]3(C)C(=CCC4[C@@]5(C)Cc6c(n[nH]c6N)C(C)(C)C5CC[C@]43C)C2C1 (stereo partly drawn) [Compound 73, (2-Amino-1H-imidazol-1-yl)((4aS,6aS,6bR,13aR)-12-amino-2,2,6a,6b,9,9,13a-heptamethyl-2,3,4,4a,5,6,6a,6b,7,8,8a,9,11,13,13a,13b,14,15b-octadecahydro-1H-chryseno[1,2-f]indazol-4-a-yl)methanone]",1 µg/mL,1 µg/mL,,,
"CC1(C)CC[C@]2(C(=O)Nc3nnc(S)s3)CC[C@]3(C)C(=CCC4[C@@]5(C)Cc6c(n[nH]c6N)C(C)(C)C5CC[C@]43C)C2C1 (stereo partly drawn) [Compound 74, (4aS,6aS,6bR,13aR)-12-Amino-N-(5-mercapto-1,3,4-thiadiazol-2-yl)-2,2,6a,6b,9,9,13a-heptamethyl-2,3,4,4a,5,6,6a,6b,7,8,8a,9,11,13,13a,13b,14,15b-octadecahydro-1H-chryseno[1,2-f]indazole-4-a-carboxamide]",1 µg/mL,> 2 µg/mL,,,
"CC1(C)CC[C@]2(c3nnc(S)[nH]3)CC[C@]3(C)C(=CCC4[C@@]5(C)Cc6c(n[nH]c6N)C(C)(C)C5CC[C@]43C)C2C1 (stereo partly drawn) [Compound 75, 5-((4aS,6aS,6bR,13aR)-12-Amino-2,2,6a,6b,9,9,13a-heptamethyl-2,3,4,4a,5,6,6a,6b,7,8,8a,9,11,13,13a,13b,14,15b-octadecahydro-1H-chryseno[1,2-f]indazol-4-a-yl)-4H-1,2,4-triazole-3-thiol]",,,0.5 µg/mL,1 µg/mL,
"C[C@H]1[C@H](C)CC[C@]2(C(=O)O)CC[C@]3(C)C(=CC[C@@H]4[C@@]5(C)C[C@@H](O)[C@H](O)C(C)(C)[C@@H]5CC[C@]43C)[C@H]12 [Corosolic acid, reference compound]",4 µg/mL,,,,
"CC1(C)CC[C@]2(C(=O)O)CC[C@]3(C)C(=CC[C@@H]4[C@@]5(C)C[C@@H](O)[C@H](O)C(C)(C)[C@@H]5CC[C@]43C)[C@@H]2C1 [Maslinic acid, reference compound]",,,,,4 µg/mL
"C[C@@H]1CC[C@]2(C)CC[C@]3(C)C(=CCC4[C@@]5(C)CC[C@H](O)C(C)(C)C5CC[C@]43C)C2[C@H]1C (stereo partly drawn) [alpha-Amyrin, reference compound]",> 32 µg/mL,,,,
